{"source": "patent US20260218121A1", "about": "“METHODS FOR CELL SURFACE REMODELING” (NANTES UNIVERSITÉ, priority 2023, published 2026)", "key": {"[1]": {"conditions": "Ruben et al., biomacromolecules, 2019, 20, 2726; cited from earlier work"}, "DC2.4 cells": {"tested_on": "DC2.4 cells", "experiment": "Viability by live and dead assay (electro-bioconjugation or glyco-engineering)", "conditions": "glyco-engineering (comparative), concentration of 250 μM, 72 h"}}}
{"smiles": "CC(=O)OC[C@H]1OC(OC(C)=O)[C@@H](NC(=O)CN=[N+]=[N-])[C@@H](OC(C)=O)[C@@H]1OC(C)=O", "note": "(some centres unmarked) [Ac4ManNAz]", "values": [{"measurement": "concentration that can be used", "setting": "[1]", "result": "≤ 100", "unit": "µM"}, {"measurement": "viability", "setting": "DC2.4 cells", "result": 30, "unit": "%"}]}
